Test results from the supplement of paper PMC11061612.

What was measured:
Carboplatin = compound: C1CC(C1)(C(=O)[O-])C(=O)[O-].N.N.[Pt+2] [Carboplatin]; conditions: max 10 µM
Outline: (§1)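 Cancer cell lines in 1536-well plates (7.5 μl DMEM/F12 or RPMI, 10% FBS) were held 24 hours at 37°C and 5% CO2 and then dosed for 72 hours at a final DMSO of typically 0.2%. Viability was taken from CellTiter-Glo 2.0 luminescence, scaled between blank-well and DMSO-well means. Curves were fitted as two-parameter logistic models with a non-linear mixed effects model, from which the single-agent IC50 was taken.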

AZD5363 = compound: C1CN(CCC1(C(=O)N[C@@H](CCO)C2=CC=C(C=C2)Cl)N)C3=NC=NC4=C3C=CN4 [AZD5363]; conditions: max 10 µM
Outline: as §1

AZD1775 = compound: C=CCn1c(=O)c2cnc(Nc3ccc(N4CCN(C)CC4)cc3)nc2n1-c1cccc(C(C)(C)O)n1 [AZD1775]; conditions: max 3 µM
Outline: as §1

Trametinib = compound: CC(=O)Nc1cccc(-n2c(=O)n(C3CC3)c(=O)c3c(Nc4ccc(I)cc4F)n(C)c(=O)c(C)c32)c1 [Trametinib]; conditions: max 1 µM
Outline: as §1

Paclitaxel = compound: CC(=O)O[C@H]1C(=O)[C@@]2(C)[C@H]([C@H](OC(=O)c3ccccc3)[C@]3(O)C[C@H](OC(=O)[C@H](O)[C@@H](NC(=O)c4ccccc4)c4ccccc4)C(C)=C1C3(C)C)[C@]1(OC(C)=O)CO[C@@H]1C[C@@H]2O [Paclitaxel]; conditions: max 3 µM
Outline: as §1

Palbociclib = compound: CC(=O)c1c(C)c2cnc(Nc3ccc(N4CCNCC4)cn3)nc2n(C2CCCC2)c1=O [Palbociclib]; conditions: max 10 µM
Outline: as §1

AZD1390 = compound: CC(C)n1c(=O)n(C)c2cnc3cc(F)c(-c4ccc(OCCCN5CCCCC5)nc4)cc3c21 [AZD1390]; conditions: max 0.3 µM
Outline: as §1

Venetoclax = compound: CC1(C)CCC(CN2CCN(c3ccc(C(=O)NS(=O)(=O)c4ccc(NCC5CCOCC5)c([N+](=O)[O-])c4)c(Oc4cnc5[nH]ccc5c4)c3)CC2)=C(c2ccc(Cl)cc2)C1 [Venetoclax]; conditions: max 1 µM
Outline: as §1

Dasatinib = compound: CC1=C(C(=CC=C1)Cl)NC(=O)C2=CN=C(S2)NC3=CC(=NC(=N3)C)N4CCN(CC4)CCO [Dasatinib]; conditions: max 2 µM
Outline: as §1

SG3199 = compound: CC1=CN2[C@@H](C1)C=NC3=CC(=C(C=C3C2=O)OC)OCCCCCOC4=C(C=C5C(=C4)N=C[C@@H]6CC(=CN6C5=O)C)OC [SG3199]; conditions: max 0.001 µM
Outline: as §1

AZD2811 = compound: CCN(CCO)CCCOc1ccc2c(Nc3cc(CC(=O)Nc4cccc(F)c4)[nH]n3)ncnc2c1 [AZD2811]; conditions: max 1 µM
Outline: as §1

SN-38 = compound: CCc1c2c(nc3ccc(O)cc13)-c1cc3c(c(=O)n1C2)COC(=O)[C@]3(O)CC [SN-38]; conditions: max 0.3 µM
Outline: as §1

AZD0156 = compound: CN(C)CCCOc1ccc(-c2ccc3ncc4c(c3c2)n(C2CCOCC2)c(=O)n4C)cn1 [AZD0156]; conditions: max 3 µM
Outline: as §1

AZD4320 = compound: CN(CC[C@H](CSC1=CC=CC=C1)NC2=C(C=C(C=C2)S(=O)(=O)NC(=O)C3=CC=C(C=C3)N4CCC(CC4)[C@H](C5=CC=CC=C5C6=CC=C(C=C6)Cl)O)S(=O)(=O)C(F)(F)F)CCO [AZD4320]; conditions: max 1 µM
Outline: as §1

Alisertib = compound: COc1cc(Nc2ncc3c(n2)-c2ccc(Cl)cc2C(c2c(F)cccc2OC)=NC3)ccc1C(=O)O [Alisertib]; conditions: max 10 µM
Outline: as §1

Etoposide = compound: COc1cc([C@@H]2c3cc4c(cc3[C@@H](O[C@@H]3O[C@@H]5CO[C@@H](C)O[C@H]5[C@H](O)[C@H]3O)[C@H]3COC(=O)[C@H]23)OCO4)cc(OC)c1O [Etoposide]; conditions: max 10 µM
Outline: as §1

Gefitinib = compound: COc1cc2ncnc(Nc3ccc(F)c(Cl)c3)c2cc1OCCCN1CCOCC1 [Gefitinib]; conditions: max 10 µM
Outline: as §1

Prexasertib = compound: COc1cccc(OCCCN)c1-c1cc(Nc2cnc(C#N)cn2)n[nH]1 [Prexasertib]; conditions: max 1 µM
Outline: as §1

Doxorubicin = compound: COc1cccc2c1C(=O)c1c(O)c3c(c(O)c1C2=O)C[C@@](O)(C(=O)CO)C[C@@H]3O[C@H]1C[C@H](N)[C@H](O)[C@H](C)O1 [Doxorubicin]; conditions: max 1 µM
Outline: as §1

AZD5153 = compound: COc1nnc2ccc(N3CCC(c4ccc(OCCN5CCN(C)C(=O)[C@H]5C)cc4)CC3)nn12 [AZD5153]; conditions: max 1 µM
Outline: as §1

Lapatinib = compound: CS(=O)(=O)CCNCc1ccc(-c2ccc3ncnc(Nc4ccc(OCc5cccc(F)c5)c(Cl)c4)c3c2)o1 [Lapatinib]; conditions: max 10 µM
Outline: as §1

AZD8186 = compound: C[C@@H](Nc1cc(F)cc(F)c1)c1cc(C(=O)N(C)C)cc2c(=O)cc(N3CCOCC3)oc12 [AZD8186]; conditions: max 10 µM
Outline: as §1

Crizotinib = compound: C[C@@H](Oc1cc(-c2cnn(C3CCNCC3)c2)cnc1N)c1c(Cl)ccc(F)c1Cl [Crizotinib]; conditions: max 10 µM
Outline: as §1

Savolitinib = compound: C[C@@H](c1ccc2nccn2c1)n1nnc2ncc(-c3cnn(C)c3)nc21 [Savolitinib]; conditions: max 1 µM
Outline: as §1

AZD6738 = compound: C[C@@H]1COCCN1C2=NC(=NC(=C2)C3(CC3)[S@](=N)(=O)C)C4=C5C=CNC5=NC=C4 [AZD6738]; conditions: max 10 µM
Outline: as §1

AZD5991 = compound: Cc1c2c(nn1C)CSCc1cc(n(C)n1)CSc1cc(c3ccccc3c1)OCCCc1c(C(=O)O)n(C)c3c-2c(Cl)ccc13 [AZD5991]; conditions: max 1 µM
Outline: as §1

AZD7648 = compound: Cc1cc2ncnn2cc1Nc1ncc2c(n1)n(C1CCOCC1)c(=O)n2C [AZD7648]; conditions: max 10 µM
Outline: as §1

Taselisib = compound: Cc1nc(-c2cn3c(n2)-c2ccc(-c4cnn(C(C)(C)C(N)=O)c4)cc2OCC3)n(C(C)C)n1 [Taselisib]; conditions: max 10 µM
Outline: as §1

Selumetinib = compound: Cn1cnc2c(F)c(Nc3ccc(Br)cc3Cl)c(C(=O)NOCCO)cc21 [Selumetinib]; conditions: max 10 µM
Outline: as §1

SRA737 = compound: N#Cc1cnc(Nc2cc(NC[C@H]3CNCCO3)c(C(F)(F)F)cn2)cn1 [SRA737]; conditions: max 10 µM
Outline: as §1

MK-2206 = compound: NC1(c2ccc(-c3nc4ccn5c(=O)[nH]nc5c4cc3-c3ccccc3)cc2)CCC1 [MK-2206]; conditions: max 10 µM
Outline: as §1

Gemcitabine = compound: Nc1ccn([C@@H]2O[C@H](CO)[C@@H](O)C2(F)F)c(=O)n1 [Gemcitabine]; conditions: max 0.3 µM
Outline: as §1

[1] = compound: O=C(Nc1ccc2[nH]nc(-c3ccncc3)c2c1)[C@@H]1CCN(CC(=O)N2CCN(c3ccc(-c4ncccn4)cc3)CC2)C1; conditions: max 5 µM
Outline: as §1

Olaparib = compound: O=C(c1cc(Cc2n[nH]c(=O)c3ccccc23)ccc1F)N1CCN(C(=O)C2CC2)CC1 [Olaparib]; conditions: max 10 µM
Outline: as §1

5-Fluorouracil = compound: O=c1[nH]cc(F)c(=O)[nH]1 [5-Fluorouracil]; conditions: max 20 µM
Outline: as §1

Row | Cell Line | IC50, cell viability 72 h (Carboplatin) [µM] | IC50, cell viability 72 h (AZD5363) [µM] | IC50, cell viability 72 h (AZD1775) [µM] | IC50, cell viability 72 h (Trametinib) [µM] | IC50, cell viability 72 h (Paclitaxel) [µM] | IC50, cell viability 72 h (Palbociclib) [µM] | IC50, cell viability 72 h (AZD1390) [µM] | IC50, cell viability 72 h (Venetoclax) [µM] | IC50, cell viability 72 h (Dasatinib) [µM] | IC50, cell viability 72 h (SG3199) [µM] | IC50, cell viability 72 h (AZD2811) [µM] | IC50, cell viability 72 h (SN-38) [µM] | IC50, cell viability 72 h (AZD0156) [µM] | IC50, cell viability 72 h (AZD4320) [µM] | IC50, cell viability 72 h (Alisertib) [µM] | IC50, cell viability 72 h (Etoposide) [µM] | IC50, cell viability 72 h (Gefitinib) [µM] | IC50, cell viability 72 h (Prexasertib) [µM] | IC50, cell viability 72 h (Doxorubicin) [µM] | IC50, cell viability 72 h (AZD5153) [µM] | IC50, cell viability 72 h (Lapatinib) [µM] | IC50, cell viability 72 h (AZD8186) [µM] | IC50, cell viability 72 h (Crizotinib) [µM] | IC50, cell viability 72 h (Savolitinib) [µM] | IC50, cell viability 72 h (AZD6738) [µM] | IC50, cell viability 72 h (AZD5991) [µM] | IC50, cell viability 72 h (AZD7648) [µM] | IC50, cell viability 72 h (Taselisib) [µM] | IC50, cell viability 72 h (Selumetinib) [µM] | IC50, cell viability 72 h (SRA737) [µM] | IC50, cell viability 72 h (MK-2206) [µM] | IC50, cell viability 72 h (Gemcitabine) [µM] | IC50, cell viability 72 h [1] [µM] | IC50, cell viability 72 h (Olaparib) [µM] | IC50, cell viability 72 h (5-Fluorouracil) [µM]
1 | MHH-ES-1 (Ewing's Sarcoma) | > 10 | > 10 | 0.649 | > 1 | 0.0054 | > 10 | > 0.3 | > 1 | > 2 | > 0.001 | 0.215 | 0.00305 | > 3 | > 1 | 0.319 | 2.7 | > 10 | 0.212 | 0.425 | 0.614 | > 10 | > 10 | 3.99 | > 1 | > 10 | > 1 | > 10 | 5.81 | > 10 | > 10 | > 10 | 0.0159 | > 5 | 4.15 | > 20
2 | JHU-022 (Oral Cavity Carcinoma) | > 10 | > 10 | 1.64 | 0.219 | 2.09 | > 10 | > 0.3 | > 1 | 0.431 | > 0.001 | > 1 | 0.0357 | > 3 | > 1 | > 10 | > 10 | 0.811 | 0.0944 | 0.505 | > 1 | 1.93 | > 10 | > 10 | > 1 | > 10 | > 1 | > 10 | 0.515 | 5.56 | > 10 | > 10 | 0.278 | 2.72 | > 10 | > 20
3 | EB2 (Burkitt's Lymphoma) | > 10 | 3.27 | 0.348 | > 1 | 0.0301 | > 10 | > 0.3 | > 1 | 0.494 | > 0.001 | > 1 | 0.00403 | > 3 | > 1 | 7.23 | 0.198 | > 10 | 0.0078 | 0.0297 | 0.348 | > 10 | 4.92 | 6.78 | > 1 | 1.63 | > 1 | > 10 | 2.02 | > 10 | 1.03 | 3.04 | 0.0138 | > 5 | > 10 | > 20
4 | IM-9 (Non-Cancerous) | > 10 | 6.7 | 0.205 | 0.00611 | 0.00497 | 4.92 | > 0.3 | > 1 | > 2 | > 0.001 | 0.0713 | 0.00253 | > 3 | 0.769 | 0.0265 | 0.0974 | > 10 | 0.0124 | 0.0528 | 0.0894 | 7.53 | > 10 | 0.819 | > 1 | 1.04 | 0.667 | > 10 | > 10 | 0.218 | 1.52 | > 10 | 0.00197 | 0.0727 | > 10 | 5.02
5 | HCC1395 (Breast Carcinoma) | > 10 | > 10 | 0.965 | > 1 | 0.206 | > 10 | > 0.3 | > 1 | > 2 | > 0.001 | > 1 | 0.173 | > 3 | > 1 | > 10 | > 10 | > 10 | 0.00908 | > 1 | > 1 | > 10 | > 10 | > 10 | > 1 | 2.79 | > 1 | > 10 | > 10 | > 10 | 2.95 | > 10 | > 0.3 | > 5 | > 10 | > 20
